Test results reported in US20250304567A1, “PYRROLIDIONE DERIVATIVES AS INHIBITORS OF NF KAPPA B INDUCING KINASE” (priority 2022, published 2025).

Experiments:
[1] = biological target: Recombinant Human NF-kappaB-Inducing Kinase (NIK/MAP3K14) (Homo sapiens, UniProt Q99558); experiment: Inhibition of auto-phosphorylation of recombinant human NIK/MAP3K14 activity (AlphaScreen); assay type: biochemical; details: 5 μM ATP, 1 nM NIK, average if tested more than once
Experimental: Assay 1: Inhibition of Auto-Phosphorylation of Recombinant Human NF-kappaB-Inducing Kinase (NIK/MAP3K14) Activity (AlphaScreen™)
NIK/MAP3K14 auto-phosphorylation activity was measured using the AlphaScreen™ (αscreen) format (Perkin Elmer). All compounds tested were dissolved in dimethyl sulfoxide (DMSO) and further dilutions were made in assay buffer. The final DMSO concentration was 0.7% (v/v) in assays. The assay buffer was 50 mM Tris pH 7.5 containing 1 mM EGTA (ethylene glycol tetraacetic acid), 1 mM DTT (dithiothreitol), 0.1 mM Na3VO4, 5 mM MgCl2, and 0.01% Tween®20. The assays were carried out in 384 well Proxiplates (Perkin Elmer). The incubations consisted of the compound, 5 μM Adenosine-5′-triphosphate (ATP), and 1 nM NIK/MAP3K14. Incubations were initiated by the addition of GST-tagged NIK/MAP3K14 enzyme, carried out for 2 h at 25° C. and terminated by addition of stop buffer containing anti-phospho-IKK Ser176/180 antibody. Protein A Acceptor and Glutathione-Donor beads were added before reading using an EnVision Multilabel Plate Reader (Perkin Elmer). The signal obtained in the wells was normalized using high (full enzyme activity, 0.7% DMSO) and low controls (no enzyme activity, 0.7% DMSO, no ATP). IC50's were determined by fitting a sigmoidal curve to % inhibition of control versus Log10 compound concentration.

[2] = test system: p-IKKa levels in L363 (NIK translocated multiple myeloma) cells; experiment: Effect of compounds on p-IKKa levels in L363 (NIK translocated multiple myeloma) cells (AlphaLISA SureFire Ultra p-IKKa Ser176/180); assay type: cell-based, human; details: Homo sapiens, L-363, p-IKKa levels in L363 cells; average if tested more than once; read-out: Assay 2 IC50
Experimental: Assay 2: Effect of Compounds on p-IKKa Levels in L363 (NIK Translocated Multiple Myeloma) Cells
All compounds tested were dissolved and serially diluted in DMSO, 1:3 dilution for 11 points in an Echo compatible plate. 100% DMSO was added to columns 12 and 24 of the plate to serve as high and low signal controls. This compound plate was used to spot 20 nL of compound or DMSO into a Greiner 384 well TC plate (781080). The final DMSO concentration was 0.3% (v/v) in cell assays. Human L363 cells (ATCC) were cultured in RPM11640 medium supplemented with GlutaMax, non-essential amino acids, sodium pyruvate and 10% fetal bovine serum. Cells were routinely maintained at densities of 0.2×10^6 cells per ml-2×10^6 cells per mL at 37° C. in a humidified 5% CO2 atmosphere incubator. Cells were passaged twice a week splitting back to obtain the low density. The day before the assay, cells were washed twice in HBSS (Hank's Balanced Salt Solution), resuspended in Dulbecco's Modified Eagle Medium (DMEM)+0.5% IgG and protease free BSA (Jackson Immuno Research Laboratories), +/−250 ng/ml recombinant human B-cell activating factor (BAFF/BLyS/TNFSF13B) and incubated overnight at 37° C. in a humidified 5% CO2 atmosphere (bulk stimulation with or without BAFF). The next day, the cell concentration was adjusted to 1×10^7 cells/ml in DMEM+/−250 ng/ml BAFF+/−10 μM MG132 and plated at 10 μl/well into compound or DMSO spotted 384 well TC plates. Seeded cells were incubated at 37° C. in a humidified 5% CO2 atmosphere for 6 h. After 6 h, the plates were removed from the incubator and cell lysis was achieved by the addition of 2.5 μl 5× lysis buffer containing protease and phosphatase inhibitors, followed by shaking on a plate shaker at room temperature for 15 min. At the end of this incubation, lysed cells were sequentially treated and incubated with acceptor and donor bead mixes according to the manufacturer's protocol for a 1 plate/2-incubation suspension cell assay (AlphaLISA SureFire Ultra p-IKKa (Ser 176/180) Assay Kit (Perkin Elmer). Plates were read using an EnVision Multilabel Plate Reader (Perkin Elmer). Within an experiment, a concentration response curve for each compound was run in duplicate. The signal obtained in the test wells was normalized using high signal (BAFF stimulated cells, DMSO, MG132) and low signal (unstimulated cells, DMSO) controls. To determine the IC50, a sigmoidal curve was fitted to the plot of % inhibition versus Log10 compound concentration.

Sequence of Recombinant Human NF-kappaB-Inducing Kinase (NIK/MAP3K14) (Q99558 whole entry): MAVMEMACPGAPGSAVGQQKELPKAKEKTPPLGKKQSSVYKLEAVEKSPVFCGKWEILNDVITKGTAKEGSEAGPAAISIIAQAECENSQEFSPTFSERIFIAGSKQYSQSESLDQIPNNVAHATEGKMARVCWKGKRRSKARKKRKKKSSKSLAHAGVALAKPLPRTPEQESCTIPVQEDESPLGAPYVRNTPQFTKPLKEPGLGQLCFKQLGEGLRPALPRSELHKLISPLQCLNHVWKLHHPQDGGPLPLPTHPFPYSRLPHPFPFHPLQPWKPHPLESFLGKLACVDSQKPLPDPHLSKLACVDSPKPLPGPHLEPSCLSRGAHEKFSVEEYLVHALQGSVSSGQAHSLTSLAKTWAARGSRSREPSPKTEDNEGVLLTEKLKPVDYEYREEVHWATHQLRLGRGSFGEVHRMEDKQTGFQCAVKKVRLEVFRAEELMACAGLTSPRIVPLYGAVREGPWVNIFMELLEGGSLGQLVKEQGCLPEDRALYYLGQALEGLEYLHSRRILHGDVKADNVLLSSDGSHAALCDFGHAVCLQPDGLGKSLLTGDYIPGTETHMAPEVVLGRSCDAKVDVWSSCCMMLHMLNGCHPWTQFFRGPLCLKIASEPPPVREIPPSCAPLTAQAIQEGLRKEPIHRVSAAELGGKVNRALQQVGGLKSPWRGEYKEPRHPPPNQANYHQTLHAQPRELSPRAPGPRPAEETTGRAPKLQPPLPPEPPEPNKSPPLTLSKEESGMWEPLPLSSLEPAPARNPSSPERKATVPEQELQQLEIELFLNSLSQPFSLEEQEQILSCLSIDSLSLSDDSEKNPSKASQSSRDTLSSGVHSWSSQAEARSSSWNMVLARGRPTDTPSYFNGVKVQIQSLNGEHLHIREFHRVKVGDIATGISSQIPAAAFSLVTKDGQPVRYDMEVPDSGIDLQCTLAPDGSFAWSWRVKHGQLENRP

Row | SMILES | IC50 [1] [nM] | IC50 [2] [nM]
1 | C[C@H](Nc1nccc(-c2csc(-c3cccc([C@]4(O)CCN(C)C4=O)c3)n2)n1)c1cncn1C (single isomer, unassigned) [Example 133] | < 100 | > 501
2 | C[C@@H](Nc1nccc(-c2csc(-c3cccc([C@]4(O)CCN(C)C4=O)c3)n2)n1)c1cncn1C (single isomer, unassigned) [Example 134] | > 501 | > 501
3 | CN1CC[C@@](O)(c2cccc(-c3nc(-c4ccnc(N[C@@H]5CCCc6cn[nH]c65)n4)cs3)c2)C1=O (single isomer, unassigned) [Example 135] | > 501 | > 501
4 | CN1CC[C@@](O)(c2cccc(-c3nc(-c4ccnc(N[C@H]5CCCc6cn[nH]c65)n4)cs3)c2)C1=O (single isomer, unassigned) [Example 136] | 100 to 500 | > 501
5 | C[C@H](Nc1nccc(-c2csc(-c3cccc([C@]4(O)CCN(C)C4=O)c3)n2)n1)c1cn[nH]c1 (single isomer, unassigned) [Example 138] | < 100 | > 501
6 | C[C@@H](Nc1nccc(-c2csc(-c3cccc([C@]4(O)CCN(C)C4=O)c3)n2)n1)c1cn[nH]c1 (single isomer, unassigned) [Example 139] | < 100 | < 100
7 | CN1CC[C@@](O)(c2ccnc(-c3csc(-c4ccnc(Nc5ccnn5C)n4)n3)c2)C1=O (single isomer, unassigned) [Example 144, (R)-3-hydroxy-1-methyl-3-(2-(2-(2-((1-methyl-1H-pyrazol-5-yl)amino)pyrimidin-4-yl)thiazol-4-yl)pyridin-4-yl)pyrrolidin-2-one or (S)-3-hydroxy-1-methyl-3-(2-(2-(2-((1-methyl-1H-pyrazol-5-yl)amino)pyrimidin-4-yl)thiazol-4-yl)pyridin-4-yl)pyrrolidin-2-one] | < 100 | 100 to 500
8 | CN1CC[C@@](O)(c2cncc(-c3ccn(-c4ccnc(Nc5cn(CC(F)F)nc5OC5CC5)n4)n3)c2)C1=O (single isomer, unassigned) [Example 145, (R)-3-(5-(1-(2-((3-cyclopropoxy-1-(2,2-difluoroethyl)-1H-pyrazol-4-yl)amino)pyrimidin-4-yl)-1H-pyrazol-3-yl)pyridin-3-yl)-3-hydroxy-1-methylpyrrolidin-2-one or (S)-3-(5-(1-(2-((3-cyclopropoxy-1-(2,2-difluoroethyl)-1H-pyrazol-4-yl)amino)pyrimidin-4-yl)-1H-pyrazol-3-yl)pyridin-3-yl)-3-hydroxy-1-methylpyrrolidin-2-one] | < 100 | < 100
9 | CN1CC[C@@](O)(c2cncc(-c3ccn(-c4ccnc(Nc5cnn6ccccc56)n4)n3)c2)C1=O (single isomer, unassigned) [Example 146, (R)-3-hydroxy-1-methyl-3-(5-(1-(2-(pyrazolo[1,5-a]pyridin-3-ylamino)pyrimidin-4-yl)-1H-pyrazol-3-yl)pyridin-3-yl)pyrrolidin-2-one or (S)-3-hydroxy-1-methyl-3-(5-(1-(2-(pyrazolo[1,5-a]pyridin-3-ylamino)pyrimidin-4-yl)-1H-pyrazol-3-yl)pyridin-3-yl)pyrrolidin-2-one] | < 100 | < 100
10 | CN1CC[C@@](O)(c2cncc(-c3ccn(-c4ccnc(Nc5ccn(C)n5)n4)n3)c2)C1=O (single isomer, unassigned) [Example 147, (R)-3-hydroxy-1-methyl-3-(5-(1-(2-((1-methyl-1H-pyrazol-3-yl)amino)pyrimidin-4-yl)-1H-pyrazol-3-yl)pyridin-3-yl)pyrrolidin-2-one or (S)-3-hydroxy-1-methyl-3-(5-(1-(2-((1-methyl-1H-pyrazol-3-yl)amino)pyrimidin-4-yl)-1H-pyrazol-3-yl)pyridin-3-yl)pyrrolidin-2-one] | < 100 | 100 to 500
11 | CN1CC[C@@](O)(c2cncc(-c3ccn(-c4ccnc(Nc5cnn6cccnc56)n4)n3)c2)C1=O (single isomer, unassigned) [Example 148, (R)-3-hydroxy-1-methyl-3-(5-(1-(2-(pyrazolo[1,5-a]pyrimidin-3-ylamino)pyrimidin-4-yl)-1H-pyrazol-3-yl)pyridin-3-yl)pyrrolidin-2-one or (S)-3-hydroxy-1-methyl-3-(5-(1-(2-(pyrazolo[1,5-a]pyrimidin-3-ylamino)pyrimidin-4-yl)-1H-pyrazol-3-yl)pyridin-3-yl)pyrrolidin-2-one] | < 100 | > 501
12 | CN1CC[C@@](O)(c2ccnc(-c3ccn(-c4ccnc(Nc5cnn6cccnc56)n4)n3)c2)C1=O (single isomer, unassigned) [Example 149, (R)-3-hydroxy-1-methyl-3-(2-(1-(2-(pyrazolo[1,5-a]pyrimidin-3-ylamino)pyrimidin-4-yl)-1H-pyrazol-3-yl)pyridin-4-yl)pyrrolidin-2-one or (S)-3-hydroxy-1-methyl-3-(2-(1-(2-(pyrazolo[1,5-a]pyrimidin-3-ylamino)pyrimidin-4-yl)-1H-pyrazol-3-yl)pyridin-4-yl)pyrrolidin-2-one] | < 100 | > 501
13 | COc1nn(CC(F)F)cc1Nc1nccc(-n2ccc(-c3cncc([C@]4(O)CCN(C)C4=O)c3)n2)n1 (single isomer, unassigned) [Example 150, (R)-3-(5-(1-(2-((1-(2,2-difluoroethyl)-3-methoxy-1H-pyrazol-4-yl)amino)pyrimidin-4-yl)-1H-pyrazol-3-yl)pyridin-3-yl)-3-hydroxy-1-methylpyrrolidin-2-one or (S)-3-(5-(1-(2-((1-(2,2-difluoroethyl)-3-methoxy-1H-pyrazol-4-yl)amino)pyrimidin-4-yl)-1H-pyrazol-3-yl)pyridin-3-yl)-3-hydroxy-1-methylpyrrolidin-2-one] | < 100 | < 100
14 | CN1CC[C@@](O)(c2ccnc(-c3csc(-c4ccnc(Nc5cnn(C)c5)n4)n3)c2)C1=O (single isomer, unassigned) [Example 151] | < 100 | < 100
15 | CN1CC[C@@](O)(c2cncc(-c3csc(-c4ccnc(Nc5cnn(C)c5)n4)n3)c2)C1=O (single isomer, unassigned) [Example 152, (R)-3-hydroxy-1-methyl-3-(5-(2-(2-((1-methyl-1H-pyrazol-4-yl)amino)pyrimidin-4-yl)thiazol-4-yl)pyridin-3-yl)pyrrolidin-2-one or (S)-3-hydroxy-1-methyl-3-(5-(2-(2-((1-methyl-1H-pyrazol-4-yl)amino)pyrimidin-4-yl)thiazol-4-yl)pyridin-3-yl)pyrrolidin-2-one] | < 100 | 100 to 500
16 | CN1CC[C@@](O)(c2ccnc(-c3ccn(-c4ccnc(Nc5cnn6ccccc56)n4)n3)c2)C1=O (single isomer, unassigned) [Example 153, (R)-3-hydroxy-1-methyl-3-(2-(1-(2-(pyrazolo[1,5-a]pyridin-3-ylamino)pyrimidin-4-yl)-1H-pyrazol-3-yl)pyridin-4-yl)pyrrolidin-2-one or (S)-3-hydroxy-1-methyl-3-(2-(1-(2-(pyrazolo[1,5-a]pyridin-3-ylamino)pyrimidin-4-yl)-1H-pyrazol-3-yl)pyridin-4-yl)pyrrolidin-2-one] | < 100 | < 100
